# Data taken from article PMC2690574 (Journal of medicinal chemistry, 2008).
# Like-named read-outs stand apart in the source and are kept apart here.
# Assays:
# [1] = One electron reduction potential E; format: physicochemical; settings: anaerobic aqueous solution, pH 7.0, pulse radiolysis
# [2] = tested on: anoxic HT29 cell suspensions; assay: Rate constant for metabolic consumption kmet in anoxic single cell suspensions; format: in vitro ADME; settings: scaled to the cell density in MCLs
# [3] = cited from earlier work; for E(1): one electron reduction potential
# [4] = calculated using ACD logD, pH 7.4; cited from earlier work
# [5] = tested on: SiHa cells; settings: cited from earlier work
# [6] = side chain, calculated using ACD pKa; cited from earlier work
# [7] = tested on: HT29 cells; settings: read-out: HT29 IC50 hypox; HT29, anoxic; cited from earlier work
# [8] = culture medium; cited from earlier work
# [9] = tested on: anoxic HT29 cell suspensions; settings: scaled to MCL cell density; cited from earlier work
# [10] = tested on: HT29 MCLs; settings: calculated; cited from earlier work
# [11] = tested on: HT29 cells; assay: IC50 assay, 4 h drug exposure under aerobic and anoxic conditions, HT29; format: cell-based; settings: criterion HCR > 20 in the PK/PD model
# [12] = tested on: anoxic HT29 tumor tissue; assay: Penetration half distance X½ calculated from D and kmet; settings: for EVT based on X½ (in words): compared with TPZ
SMILES,E(1) [1] [mV],kmet (first order rate constant for metabolism) [2] [min⁻¹],further results
CC1Cc2cc3c(cc2C1)[n+]([O-])c(NCCN(C)C)n[n+]3[O-] (centres unmarked) [TTO 14],,1.49,
COc1ccc2c(c1)[n+]([O-])c(NCCN(C)C)n[n+]2[O-] [compound 2],,,"E(1) [3]: −500 mV; lowering of E(1) by 6-OMe substituent ([3]; relative to the 3-dimethylaminoethylamine BTO): 104 mV; logP7.4 calc [4]: −0.07; SiHa HCR ([5]; oxic IC50/hypoxic IC50): 232; IC50 ([5]; read-out: SiHa IC50 hypox, anoxic): 2.9 µM; pKa [6]: 8.5; IC50 [7]: 7.7 µM; Sol. [8]: 46 mM; kmet (first order rate constant for metabolism) [9]: 0.54 min⁻¹; D calc (diffusion coefficient in HT29 MCLs) [10]: 2.9 ×10^−7 cm^2s^−1"
CN(C)CCNc1n[n+]([O-])c2cc3c(cc2[n+]1[O-])CCC3 [TTO 4],−486,0.44,
[O-][n+]1nc(NCCCN2CCOCC2)[n+]([O-])c2ccc3c(c21)CCC3 [TTO 13],−510,0.20,
Nc1n[n+]([O-])c2cc3c(cc2[n+]1[O-])OCC3 [TTO 22],,,hypoxic selectivity (in words) [11]: failed to pass the criterion for hypoxic selectivity (HCR > 20)
CC1Cc2cc3c(cc2C1)[n+]([O-])c(NCCCN1CCOCC1)n[n+]3[O-] (centres unmarked) [TTO 15],,0.13,
Nc1n[n+]([O-])c2cc3c(cc2[n+]1[O-])CCC3 [TTO 3],,0.47,
"Nc1n[n+]([O-])c2ccccc2[n+]1[O-] [compound 1, tirapazamine]",,,E(1) [3]: −456 mV; logP7.4 calc [4]: −0.33; Sol. [8]: 9 mM
CN(C)CCNc1n[n+]([O-])c2cc3c(cc2[n+]1[O-])OCC3 [TTO 23],−545,0.60,
[O-][n+]1nc(NCCCN2CCOCC2)[n+]([O-])c2cc3c(cc21)CCCC3 [TTO 17],,0.69,
CCN(CC)CCNc1n[n+]([O-])c2c3c(ccc2[n+]1[O-])CCC3 [TTO 10],,0.97,
[O-][n+]1nc(NCCCN2CCOCC2)[n+]([O-])c2cc3c(cc21)CCO3 [TTO 25],,0.23,EVT based on X½ (in words) [12]: predicted to display improved EVT
CCCN(CCC)CCNc1n[n+]([O-])c2c3c(ccc2[n+]1[O-])CCC3 [TTO 11],,0.73,
CCN(CC)CCNc1n[n+]([O-])c2cc3c(cc2[n+]1[O-])CCC3 [TTO 5],,1.08,
[O-][n+]1nc(NCCCN2CCOCC2)[n+]([O-])c2cc3c(cc21)OCC3 [TTO 21],,0.20,EVT based on X½ (in words) [12]: predicted to display improved EVT
CN(C)CCNc1n[n+]([O-])c2c3c(ccc2[n+]1[O-])CCCC3 [TTO 18],,1.78,
[O-][n+]1nc(NCCCN2CCOCC2)[n+]([O-])c2cc3c(cc21)CCC3 [TTO 8],,0.19,
CN(C)CCNc1n[n+]([O-])c2c3c(ccc2[n+]1[O-])CCC3 [TTO 9],−480,0.74,
[O-][n+]1nc(NCCN2CCCCC2)[n+]([O-])c2ccc3c(c21)CCC3 [TTO 12],,1.60,
CCN(CC)CCNc1n[n+]([O-])c2cc3c(cc2[n+]1[O-])OCC3 [TTO 24],,0.26,EVT based on X½ (in words) [12]: predicted to display improved EVT
CCCN(CCC)CCNc1n[n+]([O-])c2cc3c(cc2[n+]1[O-])CCC3 [TTO 6],,1.07,
[O-][n+]1nc(NCCN2CCCCC2)[n+]([O-])c2cc3c(cc21)CCC3 [TTO 7],,1.25,
CN(C)CCNc1n[n+]([O-])c2cc3c(cc2[n+]1[O-])CCCCC3 [TTO 19],−488,1.52,

# Further lines, with some results ahead:
E(1) [1] [mV],kmet (first order rate constant for metabolism) [2] [min⁻¹],SMILES,further results
−468,0.31,[O-][n+]1nc(CCCN2CCOCC2)[n+]([O-])c2cc3c(cc21)CCO3 [TTO 40],
,0.54,CCc1n[n+]([O-])c2cc3c(cc2[n+]1[O-])CC(CCO)C3 (centres unmarked) [TTO 38],
−344,,CCc1n[n+]([O-])c2cc3c(cc2[n+]1[O-])CN(C)CC3 [TTO 41],
−462,,CCNc1n[n+]([O-])c2cc3c(cc2[n+]1[O-])CN(C)CC3 [TTO 32],
−408,0.90,[O-][n+]1nc(CCCN2CCOCC2)[n+]([O-])c2cc3c(cc21)CC(CO)C3 (centres unmarked) [TTO 37],
−452,0.47,CCc1n[n+]([O-])c2cc3c(cc2[n+]1[O-])CC(CO)C3 (centres unmarked) [TTO 35],
,0.59,CN(C)CCNc1n[n+]([O-])c2c3c(ccc2[n+]1[O-])OCCC3 [TTO 29],
,0.54,CCc1n[n+]([O-])c2cc3c(cc2[n+]1[O-])CC(CN1CCOCC1)C3 (centres unmarked) [TTO 36],
−390,2.20,CCN1Cc2cc3c(cc2C1)[n+]([O-])c(N)n[n+]3[O-] [TTO 31],
−431,0.54,CCc1n[n+]([O-])c2cc3c(cc2[n+]1[O-])CC(CCN1CCOCC1)C3 (centres unmarked) [TTO 39],"X½ (penetration half distance) ([12]; anoxic HT29 tumor tissue, from D and kmet): 100 μm"
,0.24,CC1Cc2cc3c(cc2C1)[n+]([O-])c(CCCO)n[n+]3[O-] (centres unmarked) [TTO 33],
